Tests used:
DNA = DNA double strand break (further studies)
tumor cell cycle = assay: Tumor cell cycle arrest (further studies); format: cell-based; conditions: significantly dose-dependent
tumor cell = assay: Tumor cell apoptosis (further studies); format: cell-based
S-180 sarcoma [1] = assay: In vivo tumor growth inhibition, S-180 sarcoma in mice
S-180 sarcoma [2] = assay: as above; conditions: for activity against mice S180 sarcoma (in words): i.p. injection
Protocol: S-180 sarcoma developed for 7-11 days and in good growth trend was homogenated into cell suspension. The cell suspension was inoculated subcutaneously into right armpit of female KM mice (18˜22 g) (about 1.0−2.5×10^6 cells/mouse). After 24 h, the mice were grouped in random with compounds administrated by i.p. injection. From the next day on, the mice were given serial dosages. After treatment, animals were killed, and solid tumors were removed and weighed after the body weight were weighed. The inhibition rate was calculated as follows, and T-test was carried out: [(Average tumor weight of NS group−Average tumor weight of test group)/Average tumor weight of NS group]×100%.

H22 hepatoma = assay: In vivo tumor inhibition, H22 hepatoma
[3] = Body weight and deaths of S-180 bearing mice; format: in vivo
[4] = system: human lung adenocarcinoma cell A-549; assay: Growth inhibition of A-549 cells, SRB protein staining assay; format: cell-based; conditions: read-out: Growth inhibition effect to A-549 cell strain
Protocol: (§1) The cell growth inhibition of mice leukemia cell P388 was evaluated by MTT (microculture tetrozolium) assay, while the cell growth inhibition of human lung adenocarcinoma cell A-549 was evaluated by SRB (Sulforhodamine B) protein staining assay.
The procedure of SRB assay was as follows: appropriate amount of cells in log phase were seeded in 96-well plates according to the growing rate (90 ul/well). After cultured for 24 h, cells were exposed to serial dilutions of drugs in triplicate (10 ul/well). In addition, control wells of normal saline in corresponding concentrations and zeroing wells without cell were set. The cells were incubated in 5% CO2 humidified incubator at 37° C. After 72 h, the medium was removed and cells were fixed with cold 10% trichloric acid (TCA) at 4° C. for 1 h. The plates were washed with distilled water 5 times, and stained in room temperature with 4 mg/ml SRB (Sigma, diluted with 1% glacial acetic acid, 100 ul/well) for 15 minutes after air drying. SRB was then washed with 1% acetic acid 5 times. Plates were dried, followed by adding 150 ul/well Tris solution. Absorbance was measured at […] using a multiwell spectrophotometer. The inhibition effect of the compounds in test (percentage of growth inhibition) was calculated for each well: % inhibition=(A540control cells−A540treated cells)/A540control cells×100%.
(§2) The cell lines used were mice leukemia cell P388, human leukemia cell MOLT-4, human lung adenocarcinoma cell A-549, human gastric adenocarcinoma SGC-7901, human hepatocellular carcinoma BEL-7402 and human embryonal fibroblast WI-38 (commerially available from ATCC).
(§3) The exposure time to compounds was 48 h-72 h.

mice leukemia cell P388 = assay: Growth inhibition of P388 cells, MTT assay; format: cell-based; conditions: Mus musculus, read-out: Growth inhibition effect to P388 cell strain
Protocol: as §1
The procedure of MTT assay was as follows: appropriate amount of cells in log phase were seeded in 96-well plates (6000 cells/well, 15000 cells/well, 90ul/well) according to the growing rate. After cultured for 24 h, cells were exposed to serial dilutions of drugs in triplicate (10 ul/well). In addition, wells without cell, and wells without cell but with serial dilutions of drugs in case of using a colored-drug were set for zeroing. Then, the cells were cultured in 5% CO2 humidified incubator at 37° C. for 48 h. After treatment of drugs for 48 h, 20ul MTT (Sigma) which was diluted by normal saline to the concentration of 5 mg/ml was added to each well, 50ul/well 10%SDS-5% isobutanol-0.01% mol/LHCl was added after 4 h. After cultured overnight, absorbance was measured at 570 nm using a multiwell spectrophotometer. The inhibition effect of the compounds in test (percentage of growth inhibition) was calculated for each well: % inhibition=(OD570control cells−OD570treated cells)/OD570control cells×100%.
as §2, §3

Q: Which “DNA double strand break” value (DNA) does the source give for `CN(C)CCN1C(=O)c2cccc3cc(N)cc(c23)C1=O` [Amonafide, N-(β-dimethylaminoethyl)-3-amino-1,8-naphthalimide, reference compound] here?
A: induce the broken of DNA double strand

Q: What about the “tumor cell cycle arrest” value (tumor cell cycle) of the same compound?
A: arrest tumor cell cycle in G2/M phase

Q: And the tumor cell apoptosis (tumor cell)?
A: trigger tumor cell apoptosis

Q: And the “Tumor growth inhibition %” value (S-180 sarcoma [1]; 5 mg/kg i.p)?
A: 30.9%

Q: What about the “Tumor growth inhibition %” value (S-180 sarcoma [1]; 10 mg/kg i.p) of the same compound?
A: 15.4%

Q: And the “Weight of tumor (g) mean ± SD” value (S-180 sarcoma [1]; 10 mg/kg i.p)?
A: 1.37 ± 0.26 g

Q: And the “Weight of tumor (g) mean ± SD” value (S-180 sarcoma [2]; S-180 sarcoma, 5 mg/kg i.p)?
A: 1.12 ± 0.35 g

Q: And the “activity against mice S180 sarcoma (in words)” value (S-180 sarcoma [2])?
A: not potent

Q: What about the “activity in parallel experiments (in words)” value (H22 hepatoma; compared with C16) of the same compound?
A: not as active

Q: And the “Weight of mice (g) Day 7” value ([3]; 5 mg/kg i.p)?
A: 32.0 g

Q: And the “Weight of mice (g) Day 7” value ([3]; 10 mg/kg i.p)?
A: 31.3 g

Q: Which results are given for `CN(C)CCN1C(=O)c2cccc3c2c(cc2c4ccccc4sc32)C1=O` [compound 16, N-(N′,N′-dimethylaminoethyl)benzo[b]thieno[2,1-c]naphthalimide]?
A: DNA double strand break (DNA): induce the broken of DNA double strand; inhibition at 100 µM ([4]; A549, 10^−4 M): 97.1%; inhibition at 10 µM ([4]; A549, 10^−5 M): 96.6%; inhibition at 1 µM ([4]; A549, 10^−6 M): 85.2%; inhibition at 0.1 µM ([4]; A549, 10^−7 M): 72.2%; inhibition at 0.01 µM ([4]; A549, 10^−8 M): 55.3%; tumor cell cycle arrest (tumor cell cycle): arrest tumor cell cycle in G2/M phase; inhibition at 100 µM (mice leukemia cell P388; 10^−4 M): 100%; inhibition at 10 µM (mice leukemia cell P388; 10^−5 M): 95.9%; inhibition at 1 µM (mice leukemia cell P388; 10^−6 M): 68.2%; inhibition at 0.1 µM (mice leukemia cell P388; 10^−7 M): 21.4%; inhibition at 0.01 µM (mice leukemia cell P388; 10^−8 M): 13.8%; tumor cell apoptosis (tumor cell): trigger tumor cell apoptosis; Tumor growth inhibition % (S-180 sarcoma [1]; 12.5 mg/kg i.p): 29.6%; Tumor growth inhibition % (S-180 sarcoma [1]; 50 mg/kg i.p): 95.6%; Weight of tumor (g) mean ± SD (S-180 sarcoma [1]; 50 mg/kg i.p): 0.08 ± 0.04 g; Weight of tumor (g) mean ± SD (S-180 sarcoma [2]; S-180 sarcoma, 12.5 mg/kg i.p): 1.14 ± 0.29 g; Tumor growth inhibition % (S-180 sarcoma [2]; S-180 sarcoma, 25 mg/kg i.p): 71.6%; Weight of tumor (g) mean ± SD (S-180 sarcoma [2]; S-180 sarcoma, 25 mg/kg i.p): 0.46 ± 0.24 g; activity against mice S180 sarcoma (in words) (S-180 sarcoma [2]): active; tumor inhibition (in words) (H22 hepatoma; 7.5 mg/kg): not active; tumor inhibition rate (H22 hepatoma; i.p. 15 mg/kg): 51.0%; tumor inhibition rate (H22 hepatoma; i.p. 30 mg/kg): 72.6%; Weight of mice (g) Day 7 ([3]; 12.5 mg/kg i.p): 26.9 g; Weight of mice (g) Day 7 ([3]; 25 mg/kg i.p): 18.6 g; Weight of mice (g) Day 7 ([3]; 50 mg/kg i.p): 12.9 g

— patent US7541463B2, “Sulfur-containing naphthalimide derivatives” (East China University of Science and Technology, priority 2003, dated 2009)
